Key:
osteoarthritic pain = settings: intra-articular injection; cited from earlier work
[1] = in vivo; cited from earlier work
[2] = Freeze fracture microscopy (FF-TEM) of the compositions; assay type: physicochemical; settings: freeze-fracture transmission electron microscope
Protocol: The compositions were subsequently examined using a freeze-fracture transmission electron microscope (FF-TEM). FF-TEM samples of each formulation were prepared in accordance with techniques described in chapter 5 of “Low Temperature Microscopy and Analysis” by Patrick Echlin (1992). The sample was mounted between thin metal sheets and rapidly cooled with liquid propane to −196° C. The sample was then transferred under liquid nitrogen to a pre-cooled cold stage of a Balzers BAF-301 high vacuum freeze-etch unit (Techno Trade International, Lichtenstein). The sample was fractured at low temperature and etched at −150° C. to remove a surface layer of water. The fracture faces were shadowed at an angle of 45° with platinum to create selective electron contrast. A thin layer of carbon was deposited over the entire fracture surface to create a continuous replica. The replicas were then examined using a JEOL 100CX2 electron microscope (Japanese Electronic Optical Laboratories, Japan).

| Compound | pain relief (osteoarthritic pain) | overall turnover rate t1/2 [1] | Structures seen by FF-TEM [2] |
| --- | --- | --- | --- |
| CCCCCCCCCCCCCCCC(=O)OC[C@H](COP(=O)([O-])OCC[N+](C)(C)C)OC(=O)CCCCCCCCCCCCCCC [DPPC, 1,2-dipalmitoyl-sn-glycero-3-phosphocholine] | reduce osteoarthritic pain |  |  |
| Hyaluronic acid |  | 0.5 to a few | presence of string like structures |

From US20050123593A1, “Liposomal encapsulation of glycosaminoglycans for the treatment of arthritic joints” (priority 2001, published 2005)
